Earlier results in patent publication US10604509B2, “Nrf2 regulators” (GlaxoSmithKline Intellectual Property Development Limited, priority 2015, dated 2020).

Key:
[1] = tested on: COPD macrophages and alveolar macrophages from cigarette smoke-exposed mice; details: cited from earlier work
rats [2] = details: rats on a choline-deficient L-amino acid-defined diet; cited from earlier work
rats [3] = details: cerebral ischemia-reperfusion model; cited from earlier work
mice = details: NRF2 wild-type and KO mice after administration; cited from earlier work

C[S+]([O-])CCCCN=C=S (centres unmarked) [Sulforaphane]
expression of Macrophage Receptor with Collagenous structure (MARCO) ([1]; COPD macrophages and alveolar macrophages from cigarette smoke-exposed mice): increases the expression of Macrophage Receptor with Collagenous structure (MARCO)
bacterial phagocytosis and bacterial clearance ([1]; Pseudomonas aeruginosa, non-typable Haemophilus influenzae, ex vivo and in vivo): improving in these cells bacterial phagocytosis

Cc1c(-c2cnccn2)ssc1=S [oltipraz]
progression of histologic abnormalities, especially hepatic fibrosis (rats [2]): significantly attenuated progression of histologic abnormalities

CC(C)(C)c1cc(O)ccc1O [tert-butylhydroquinone (tBHQ), tert-butylhydroquinone]
cortical damage (rats [3]): reduced cortical damage
cortical glutathione levels (mice): increased in NRF2 wild-type but not KO mice
